Experimental data reported in US20260365696A1, “INHIBITORS OF PTP1B / NCK1 INTERACTION AND METHODS OF MAKING AND USING SAME” (Radella Pharmaceuticals LLC, priority 2023, published 2026).
Values belong to the substance of their own block, whether it stands above or below them.

Molecular target: T1, SH3-2 domain of NCK1 (Homo sapiens, UniProt P16333)
T1 construct: To amplify the NCK1 SH3-2 domain, the primers; 10xHis tag with TEV site (vector pSF-OXB20-NH2-10HIS) (N, cleaved yes); made in house; host or cells: E. coli C43(DE3)
Assay: Isothermal titration calorimetry (ITC) binding to NCK1 SH3-2 domain
Details: ITC; for Kd: 25 °C, pH 8.0
Description: Human PTP1B cDNA (NM_002827) and human NCK1 cDNA (NM 006153) were obtained (Origene, MD, USA). PTP1B Primers were designed to amplify the ORFs with added homology to the cut vector (EcoRI-digested pSF-OXB20-NH2-10HIS) in the forward primer sequence. To amplify full-length PTP1B, the primers ptp1b_FL_fwd ([…]) (SEQ ID NO: 159) and ptp1b_FL_rev ([…]) (SEQ ID NO: 160) were used. To amplify truncations of PTP1B, the following primer pairs were used: ptp1b_FL-Fwd and one of Ptplb_323stop_rev (gtgcaggaggagttcgaatt[…]) (SEQ ID NO: 161), ptp1b_344stop_rev ([…]) (SEQ ID NO: 162) or ptp1b_278stop_rev([…]) (SEQ ID NO: 163). To amplify the NCK1 SH3-2 domain, the primers ncklsh32_fwd ([…]) (SEQ ID NO: 164) and ncklsh32_rev ([…]) (SEQ ID NO: 165) were used. The amplified fragments were purified using a DNA clean-up kit according to manufacturer's instructions (QIAquick PCR purification kit, Qiagen).
To produce and purify fusion proteins, a culture was inoculated with 1% of overnight-cultured inoculum. Protein expression was carried out under the conditions described above, scaled up as necessary. Cells expressing the recombinant proteins were harvested in 50 mL tubes by centrifugation and stored at −80 °C. Cells containing the expressed gene product were thawed over ice and resuspended in Extraction buffer (10 mM Tris, pH 7.4 or 10 mM Sodium Phosphate, pH 8.0; 300 mM NaCl, 1 mM DTT or TCEP; 0-10% glycerol and 1 μg lysozyme) and sonicated over ice (4 °C) for 3 min total using pulses of 5 s with 15 s intervals, using a wide probe at 15 amplitude microns (Soniprep 150, MSE). Insoluble material was removed from the lysate by centrifugation at 20K rpm for 20-60 min at 4 °C. Supernatant was filtered through a 0.22 μm PVDF filter membrane and applied to 1-2 5 mL HisTrap FF Crude (Cytiva) prepacked Ni columns and connected to an AKTA explorer. After thorough washing with binding buffer (10 mM Tris, pH 7.4 or 10 mM Sodium Phosphate, pH 8.0; 300 mM NaCl; 1 mM DTT or TCEP and 25 mM Imidazole), protein was eluted using elution buffer (10 mM Tris, pH 7.4 or 10 mM Sodium Phosphate, pH 8.0; 150-300 mM NaCl; 1 mM DTT or TCEP and 250 mM Imidazole). Fractions containing protein of interest were confirmed by SDS PAGE. Protein was diluted with GF buffer (10 mM Tris, pH 7.4 or 10 mM Sodium Phosphate, pH 8.0; 150-300 mM NaCl) and subjected to TEV protease treatment overnight at 4-10 °C. Following proteolytic digestion, HIS-tag and TEV protease were removed by filtration through a clean 5 mL HisTrap FF Crude (Cytiva) prepacked Ni column. Protein was concentrated on a PES ultrafiltration device by centrifugation at 4000 rpm at 4 °C, and protein was polished via a HiPrep S-100 26/60 (Cytiva) using GF buffer (as described above). Purified proteins were concentrated using ultrafiltration, and protein concentration was determined using ultraviolet-visible spectroscopy. The integrity and identity of all proteins were verified by mass spectrographic analysis.
Isothermal titration calorimetry (ITC) was used to determine binding affinities for peptides against the SH3-2 domain of NCK1. Experiments were conducted at 25 °C using either a MicroCal iTC200 or MicroCal PEAQ-ITC calorimeter. The buffer used for all ITC experiments was 10 mM sodium [COMPOUND LEFT OUT] mM sodium chloride (pH=8.0). A series of peptides (concentration 3-7.5 mM) were titrated in to NCK1 SH3-2 domain (concentration 0.125-0.3 mM) using the following conditions: one injection of 0.2 μL followed by 19 injections of 2 μL, 120-150 seconds spacing between injections, at 25 °C. The data were fit using analysis software provided by the manufacturer and affinity values were calculated. The best fitting occurred when the number of sites was between 0.8 and 1.2. The experiments were repeated twice for a total of three times, and the average binding affinity for each peptide was generated. […]

[1] = substitutions at position 6 of MD18
[2] = substitutions at position 4 of MD18 in a 7-mer
[3] = substitutions at position 3 of MD18
[4] = Alanine scanning of the MD20 6-mer peptide
[5] = substitutions at position 1 of MD18
[6] = N- or C-terminal extensions, 30-mers tested one to three times

Kd (substitutions at position 8 of the 8-mer MH063, certain peptides tested one to three times): ≤ 300 µM
Substance: Ac-PPRPPKRY-NH2 [MH155]

Kd [1]: ≤ 300 µM
Substance: Ac-PPRPPLR-NH2 [MH102, Ac-PPRPPLR-NH2]

Kd [1]: ≤ 300 µM
Substance: Ac-PPRPPMR-NH2 [MH112, Ac-PPRPPMR-NH2]

Kd [1]: ≤ 300 µM
Substance: Ac-PPRPPNR-NH2 [MH053, Ac-PPRPPNR-NH2]

Kd [1]: ≤ 300 µM
Substance: Ac-PPRPPPR-NH2 [MH107, Ac-PPRPPPR-NH2]

Kd [1]: ≤ 300 µM
Substance: Ac-PPRPPQR-NH2 [MH088, Ac-PPRPPQR-NH2]

Kd [1]: ≤ 300 µM
Substance: Ac-PPRPPRR-NH2 [MH048, Ac-PPRPPRR-NH2]

Kd [1]: ≤ 300 µM
Substance: Ac-PPRPPSR-NH2 [MH052, Ac-PPRPPSR-NH2]

Kd [1]: ≤ 300 µM
Substance: Ac-PPRPPTR-NH2 [MH116, Ac-PPRPPTR-NH2]

Kd [1]: ≤ 300 µM
Substance: Ac-PPRPPVR-NH2 [MH126, Ac-PPRPPVR-NH2]

Kd [1]: ≤ 300 µM
Substance: Ac-PPRPPWR-NH2 [MH050, Ac-PPRPPWR-NH2]

Kd [1]: ≤ 300 µM
Substance: Ac-PPRPPYR-NH2 [MH122, Ac-PPRPPYR-NH2]

Kd [2]: > 1000 µM
Substance: Ac-PPRQPKR-NH2 [MH131, Ac-PPRQPKR-NH2]

Kd [2]: 300 to 600 µM
Substance: Ac-PPRRPKR-NH2 [MH062, Ac-PPRRPKR-NH2]

Kd [2]: > 1000 µM
Substance: Ac-PPRSPKR-NH2 [MH108, Ac-PPRSPKR-NH2]

Kd [2]: 300 to 600 µM
Substance: Ac-PPRTPKR-NH2 [MH115, Ac-PPRTPKR-NH2]

Kd [2]: ≤ 300 µM
Substance: Ac-PPRVPKR-NH2 [MH125, Ac-PPRVPKR-NH2]

Kd [2]: > 1000 µM
Substance: Ac-PPRWPKR-NH2 [MH118, Ac-PPRWPKR-NH2]

Kd [2]: 300 to 600 µM
Substance: Ac-PPRYPKR-NH2 [MH121, Ac-PPRYPKR-NH2]

Kd [3]: ≤ 300 µM
Substance: Ac-PPSPPKR-NH2 [MH059, Ac-PPSPPKR-NH2]

Kd [3]: ≤ 300 µM
Substance: Ac-PPTPPKR-NH2 [MH114, Ac-PPTPPKR-NH2]

Kd [3]: ≤ 300 µM
Substance: Ac-PPVPPKR-NH2 [MH124, Ac-PPVPPKR-NH2]

Kd [3]: 300 to 600 µM
Substance: Ac-PPWPPKR-NH2 [MH056, Ac-PPWPPKR-NH2]

Kd [3]: ≤ 300 µM
Substance: Ac-PPYPPKR-NH2 [MH120, Ac-PPYPPKR-NH2]

Kd [4]: > 1000 µM
Substance: Ac-PRAPKR-NH2 [MH010, Ac-PRAPKR-NH2]

Kd [4]: > 1000 µM
Substance: Ac-PRPAKR-NH2 [MH011, Ac-PRPAKR-NH2]

Kd [4]: 300 to 600 µM
Substance: Ac-PRPPAR-NH2 [MH012, Ac-PRPPAR-NH2]

binding to NCK1 SH3-2 domain (in words): abolished binding
Kd (Peptide truncation analysis): > 1000 µM
Substance: Ac-PRPPK-NH2 [MH022, Ac-PRPPK-NH2]

Kd [4]: > 1000 µM
binding to NCK1 SH3-2 domain (in words): abolished binding
Substance: Ac-PRPPKA-NH2 [MH013, Ac-PRPPKA-NH2]

Kd [5]: ≤ 300 µM
Substance: Ac-QPRPPKR-NH2 [MH086, Ac-QPRPPKR-NH2]

Kd (Peptide truncation analysis): > 1000 µM
Substance: Ac-RPPKR-NH2 [MH018, Ac-RPPKR-NH2]

Kd [5]: ≤ 300 µM
Substance: Ac-RPRPPKR-NH2 [MH068, Ac-RPRPPKR-NH2]

Kd (exemplary control peptides): > 1000 µM
Substance: Ac-SPAKGEPSLPEK-NH2 [MH133, reference compound]

Kd [5]: ≤ 300 µM
Substance: Ac-SPRPPKR-NH2 [MH074, Ac-SPRPPKR-NH2]

Kd [6]: ≤ 300 µM
Substance: Ac-SVQDQWKELSHEDLEPPPEHIPPPPRPPKR-NH2 [MH136]

Kd [5]: ≤ 300 µM
Substance: Ac-TPRPPKR-NH2 [MH113, Ac-TPRPPKR-NH2]

Kd [5]: ≤ 300 µM
Substance: Ac-VPRPPKR-NH2 [MH123, Ac-VPRPPKR-NH2]

Kd [6]: ≤ 300 µM
Substance: Ac-WKELSHEDLEPPPEHIPPPPRPPKR-NH2 [MH135]

Kd [5]: ≤ 300 µM
Substance: Ac-WPRPPKR-NH2 [MH117, Ac-WPRPPKR-NH2]

Kd [5]: ≤ 300 µM
Substance: Ac-YPRPPKR-NH2 [MH119, Ac-YPRPPKR-NH2]

Kd (exemplary control peptides): > 1000 µM
Substance: H-PAVPPRP-NH2 [MH081, H-PAVPPRP-NH2, reference compound]

Kd (Modified MD18/MD20 peptides): ≤ 300 µM
Substance: H-PPRPPKR-NH2 [MH075, H-PPRPPKR-NH2]
